# According to ChEMBL document CHEMBL5113535, “The Design, Synthesis, and Evaluation of Novel 9-Arylxanthenedione-Based Allosteric Modulators for the δ-Opioid Receptor” (J Med Chem, 2022):
# Molecular target: T1, Delta-type opioid receptor (Homo sapiens, UniProt P41143)
# Test: Agonist activity at human DOR expressed in CHO cells assessed as […] in ERK1/2 phosphorylation level
# Format: functional, cell-based
# Details: not given
# T1 sequence (P41143 whole entry): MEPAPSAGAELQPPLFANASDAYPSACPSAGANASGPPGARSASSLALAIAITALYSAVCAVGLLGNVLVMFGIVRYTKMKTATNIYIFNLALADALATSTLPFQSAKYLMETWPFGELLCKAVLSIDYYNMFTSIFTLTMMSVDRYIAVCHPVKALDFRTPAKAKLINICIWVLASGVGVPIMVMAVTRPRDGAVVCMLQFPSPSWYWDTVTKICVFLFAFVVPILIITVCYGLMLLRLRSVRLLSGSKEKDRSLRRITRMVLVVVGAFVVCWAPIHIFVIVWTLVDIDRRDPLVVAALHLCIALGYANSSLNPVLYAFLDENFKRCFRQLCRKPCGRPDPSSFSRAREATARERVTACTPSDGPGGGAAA
row,Compound,EC50
1,CN1CC[C@@]2(c3cccc(O)c3)Cc3nc4ccccc4cc3C[C@@H]2C1,31.6 nM
2,C=CCN1C[C@H](C)N([C@H](c2ccc(C(=O)NCC)cc2)c2cccc(OC)c2)C[C@H]1C,43.7 nM

# Molecular target: T1, Delta-type opioid receptor
# Details: CHO, filed as modulator, time 1.0 hrs
row,Compound,pKb
1,Cc1ccccc1COc1ccc(C2C3=C(CC(C)(C)CC3=O)OC3=C2C(=O)CC(C)(C)C3)nc1,4.89
2,Cc1ccccc1COc1ccc(C2C3=C(CC(C)(C)CC3=O)OC3=C2C(=O)CC(C)(C)C3)cc1F,6.01
3,CC1CC(=O)C2=C(C1)OC1=C(C(=O)CC(C)C1)C2c1ccc(OCC2CCCCC2)cc1 (configuration not stated),5.83

# Other lines, results leading:
row,pKb,Compound
1,5.57,CC1(C)CC(=O)C2=C(C1)OC1=C(C(=O)CC(C)(C)C1)C2c1ccc(OCC2CCCC2)cc1
2,5.9,CC1(C)CC(=O)C2=C(C1)OC1=C(C(=O)CC(C)(C)C1)C2c1ccc(OCc2ccccc2Br)cc1
3,6.18,C#Cc1ccccc1COc1ccc(C2C3=C(CC(C)(C)CC3=O)OC3=C2C(=O)CC(C)(C)C3)cc1
4,5.5,CCc1ccccc1COc1ccc(C2C3=C(CC(C)(C)CC3=O)OC3=C2C(=O)CC(C)(C)C3)cc1
5,5.72,CC1(C)CC(=O)C2=C(C1)OC1=C(C(=O)CC(C)(C)C1)C2c1ccc(OCC2CCC2)cc1
6,6.08,CC(C)c1ccccc1COc1ccc(C2C3=C(CC(C)(C)CC3=O)OC3=C2C(=O)CC(C)(C)C3)cc1
7,5.53,CC1(C)CC(=O)C2=C(C1)OC1=C(C(=O)CC(C)(C)C1)C2c1ccc(OCc2ccccc2C2CC2)cc1
